Test [1] concerns Motorik des Magen-Darmtrakts und der ableitenden Harnwege. Kind of test: Stimulation of the motility of the gastrointestinal tract and the efferent urinary tract. The following applies: dose needed relative to the peptides of the invention. The class given is in vivo, Hund.
Test [2] shares this test system. Described as above. Type of test: in vivo, Hund. The conditions noted are these: parent compound compared with analogues varied in positions A-D. As for the experimental part:
Die erfindungsgemässen Peptide stimulieren die Motorik des Magen-Darmtrakts und der ableitenden Harnwege beim Hund und beim Menschen. Sie steigern den Ruhetonus und die segmentale Kontraktionsaktivität des Darmes und fördern dadurch sekundär auch die Wasserresorption aus dem Darmlumen (lleum).
Die erfindungsgemässen Peptide wirken intravenös bereits in einer Dosierung von 10 ng/kg und können unbedenklich auch in höherer Dosierung angewandt werden. […] Das parasympathomimetisch wirkende Carbaminoylcholin benötigt für die gleiche Wirkung etwa eine 10 fache Dosierung. So zählen die erfindungsgemässen Peptide zu den stärksten Effektoren der Motorik des Magen-Darmtrakts und der ableitenden Harnwege. Ihre morphinähnliche Wirkung ist zwar bekannt, doch überschreiten bei der geringen erforderlichen Dosierung weder nach intravenöser, subcutaner noch intranasaler Anwendung die wirksamen Dosen die Blut-Hirn-Schranke. Sie üben deshalb in der für den erfindungsgemässen Zweck erforderlichen Menge keine Wirkungen im Zentralnervensystem aus.

In the case of `C[N+](C)(C)CCOC(N)=O` [Carbaminoylcholin], the “höhere Dosierung für ähnliche / gleiche Wirkung” value in test [1] is around 10 fach. Turning to Enkephalin, the “Wirkung (motility stimulation, in words)” value in test [2] is “sehr schwach wirksamen”.

(Values after patent EP0028716B1, “Motility increasing peptides and their use” (HOECHST AKTIENGESELLSCHAFT, priority 1979, dated 1986).)
